Active and inactive are the calls of the source. The rule behind the calls is not given here.
Tested on: rodent lifetime carcinogenesis bioassay, tumor incidence TD50
Test: chronic cancer bioassays in animals – CPDB, compiled studies (AID 1745844)

Compound: O=C1NS(=O)(=O)c2ccccc21
- TD50 (monkey, strain Rhesus [Macaca mulatta], both sexes, in feed, site: any site (literature study), lesion: malignant tumor, dosed 1221 weeks, study length 1221 weeks): 610 mg/kg/day
- TD50 (monkey, strain Rhesus [Macaca mulatta], both sexes, in feed, site: thyroid gland, lesion: lymphoma, dosed 1221 weeks, study length 1221 weeks): 43.3 mg/kg/day
- TD50 (mouse, strain CD-1 HaM/ICR, females, in feed, site: any site (literature study), lesion: several types, types named in the paper, dosed 104 weeks, study length 104 weeks): 26100 mg/kg/day (inactive)
- carcinogen call (mouse, strain CD-1 HaM/ICR, females, in feed, site: liver, lesion: one or several types, types not named, dosed 104 weeks, study length 104 weeks): negative (inactive)
- carcinogen call (mouse, strain CD-1 HaM/ICR, females, in feed, site: lung, lesion: one or several types, types not named, dosed 104 weeks, study length 104 weeks): negative (inactive)
- TD50 (mouse, strain CD-1 HaM/ICR, males, in feed, site: any site (literature study), lesion: several types, types named in the paper, dosed 104 weeks, study length 104 weeks): 881 mg/kg/day (inactive)
- carcinogen call (mouse, strain CD-1 HaM/ICR, males, in feed, site: liver, lesion: hepatoma, dosed 104 weeks, study length 104 weeks): negative (inactive)
- TD50 (mouse, strain CD-1 HaM/ICR, males, in feed, site: lung, lesion: one or several types, types not named, dosed 104 weeks, study length 104 weeks): 1360 mg/kg/day (inactive)
- carcinogen call (mouse, strain Swiss albino, females, in feed, site: liver, lesion: hepatoma, dosed 76 weeks, study length 76 weeks): negative (inactive)
- TD50 (mouse, strain Swiss albino, females, in feed, site: lung, lesion: one or several types, types not named, dosed 76 weeks, study length 76 weeks): 56300 mg/kg/day (inactive)
- carcinogen call (mouse, strain Swiss, females, in feed, site: urinary bladder, lesion: anaplastic carcinoma, dosed 91 weeks, study length 91 weeks): negative (inactive)
- carcinogen call (mouse, strain Swiss, males, in feed, site: urinary bladder, lesion: transitional-cell carcinoma, dosed 91 weeks, study length 91 weeks): negative (inactive)
- TD50 (rat, strain ACI, males, in feed, site: urinary bladder, lesion: papilloma, dosed 52 weeks, study length 52 weeks): 1110 mg/kg/day
- TD50 (rat, strain ACI, males, in feed, site: urinary bladder, lesion: transitional-cell carcinoma, dosed 52 weeks, study length 52 weeks): 3710 mg/kg/day
- carcinogen call (rat, strain Analbuminaemic (Sprague-Dawley derived), males, in feed, site: urinary bladder, lesion: carcinoma, dosed 80 weeks, study length 80 weeks): negative (inactive)
- TD50 (rat, strain Charles River CD (Sprague-Dawley), females, in feed, site: liver, lesion: biliary cystadenoma, dosed 142 weeks, study length 142 weeks): 155000 mg/kg/day
- TD50 (rat, strain Charles River CD (Sprague-Dawley), females, in feed, site: liver, lesion: cholangiocarcinoma, dosed 113 weeks, study length 113 weeks): 78200 mg/kg/day (inactive)
- TD50 (rat, strain Charles River CD (Sprague-Dawley), females, in feed, site: liver, lesion: neoplastic nodule, dosed 142 weeks, study length 142 weeks): 155000 mg/kg/day
- TD50 (rat, strain Charles River CD (Sprague-Dawley), females, in feed, site: liver, lesion: nodular hyperplasia, dosed 113 weeks, study length 113 weeks): 98400 mg/kg/day (inactive)
- carcinogen call (rat, strain Charles River CD (Sprague-Dawley), males, in feed, site: any site (literature study), lesion: several types, types named in the paper, dosed 104 weeks, study length 104 weeks): negative (inactive)
- TD50 (rat, strain Charles River CD (Sprague-Dawley), males, in feed, site: liver, lesion: biliary cystadenoma, dosed 142 weeks, study length 142 weeks): 60000 mg/kg/day
- carcinogen call (rat, strain Charles River CD (Sprague-Dawley), males, in feed, site: liver, lesion: hepatocellular carcinoma, dosed 113 weeks, study length 113 weeks): negative (inactive)
- TD50 (rat, strain Charles River CD (Sprague-Dawley), males, in feed, site: parathyroid, lesion: adenoma, dosed 142 weeks, study length 142 weeks): 23200 mg/kg/day
- TD50 (rat, strain Charles River CD (Sprague-Dawley), males, in feed, site: urinary bladder, lesion: transitional-cell carcinoma, dosed 142 weeks, study length 142 weeks): 31100 mg/kg/day
- TD50 (rat, strain Charles River CD (Sprague-Dawley), males, in feed, site: urinary bladder, lesion: transitional-cell papilloma, dosed 142 weeks, study length 142 weeks): 30800 mg/kg/day
- carcinogen call (rat, strain Fischer 344, males, in feed, site: forestomach, lesion: papilloma, dosed 72 weeks, study length 73 weeks): negative (inactive)
- carcinogen call (rat, strain Fischer 344, males, in feed, site: urinary bladder, lesion: carcinoma, dosed 72 weeks, study length 73 weeks): negative (inactive)
- carcinogen call (rat, strain Fischer 344, males, in feed, site: urinary bladder, lesion: one or several types, types not named, dosed 52 weeks, study length 52 weeks): negative (inactive)
- carcinogen call (rat, strain Fischer 344, males, in feed, site: urinary bladder, lesion: one or several types, types not named, dosed 72 weeks, study length 72 weeks): negative (inactive)
- carcinogen call (rat, strain Fischer 344, males, in feed, site: urinary bladder, lesion: one or several types, types not named, dosed 102 weeks, study length 104 weeks): negative (inactive)
- carcinogen call (rat, strain Fischer 344, males, in feed, site: urinary bladder, lesion: one or several types, types not named, dosed 104 weeks, study length 104 weeks): negative (inactive)
- TD50 (rat, strain Fischer 344, males, in feed, site: urinary bladder, lesion: papilloma, dosed 104 weeks, study length 104 weeks): 54100 mg/kg/day
- TD50 (rat, strain Fischer, males, in feed, site: testis, lesion: interstitial-cell tumor, dosed 77 weeks, study length 98 weeks): 613 mg/kg/day
- carcinogen call (rat, strain Fischer, males, in feed, site: urinary bladder, lesion: several types, types named in the paper, dosed 100 weeks, study length 104 weeks): negative (inactive)
- TD50 (rat, strain Sprague-Dawley, both sexes, in feed, site: any site (literature study), lesion: malignant tumor, dosed 130 weeks, study length 130 weeks): 4100 mg/kg/day (inactive)
- carcinogen call (rat, strain Sprague-Dawley, both sexes, in feed, site: urinary bladder, lesion: one or several types, types not named, dosed 130 weeks, study length 130 weeks): negative (inactive)
- carcinogen call (rat, strain Sprague-Dawley, males, in feed, site: urinary bladder, lesion: carcinoma, dosed 80 weeks, study length 80 weeks): negative (inactive)
- carcinogen call (rat, strain Sprague-Dawley, males, in feed, site: urinary bladder, lesion: one or several types, types not named, dosed 52 weeks, study length 52 weeks): negative (inactive)
- TD50 (rat, strain Wistar, both sexes, in feed, site: urinary bladder, lesion: one or several types, types not named, dosed 104 weeks, study length 104 weeks): 125000 mg/kg/day
- carcinogen call (rat, strain Wistar, males, in feed, site: urinary bladder, lesion: one or several types, types not named, dosed 52 weeks, study length 52 weeks): negative (inactive)

Compound: [Cl][Hg][Cl]
- TD50 (mouse, strain B6C3F1, females, by gavage, site: any site (literature study), lesion: several types, types named in the paper, dosed 103 weeks, study length 104 weeks): 5.83 mg/kg/day (inactive)
- TD50 (mouse, strain B6C3F1, females, by gavage, site: lung, lesion: alveolar/bronchiolar adenoma + alveolar/bronchiolar carcinoma, dosed 103 weeks, study length 104 weeks): 40.8 mg/kg/day
- TD50 (mouse, strain B6C3F1, males, by gavage, site: kidney, lesion: tubular-cell adenocarcinoma, dosed 103 weeks, study length 104 weeks): 240 mg/kg/day
- TD50 (mouse, strain B6C3F1, males, by gavage, site: kidney, lesion: tubule adenoma + tubular-cell adenocarcinoma, dosed 103 weeks, study length 104 weeks): 81.6 mg/kg/day
- TD50 (mouse, strain B6C3F1, males, by gavage, site: kidney, lesion: tubule adenoma, dosed 103 weeks, study length 104 weeks): 125 mg/kg/day
- TD50 (mouse, strain Charles River CD1, females, in drinking water, site: all sites, lesion: lymphoma and leukemia, combined, dosed 118 weeks, study length 118 weeks): 3.58 mg/kg/day (inactive)
- TD50 (mouse, strain Charles River CD1, females, in drinking water, site: any site (literature study), lesion: malignant tumor, dosed 118 weeks, study length 118 weeks): 5.55 mg/kg/day (inactive)
- TD50 (mouse, strain Charles River CD1, females, in drinking water, site: any site (literature study), lesion: several types, types named in the paper, dosed 118 weeks, study length 118 weeks): 2.42 mg/kg/day (inactive)
- carcinogen call (mouse, strain Charles River CD1, females, in drinking water, site: lung, lesion: one or several types, types not named, dosed 118 weeks, study length 118 weeks): negative (inactive)
- carcinogen call (mouse, strain Charles River CD1, males, in drinking water, site: any site (literature study), lesion: malignant tumor, dosed 119 weeks, study length 119 weeks): negative (inactive)
- TD50 (mouse, strain Charles River CD1, males, in drinking water, site: any site (literature study), lesion: several types, types named in the paper, dosed 119 weeks, study length 119 weeks): 3.2 mg/kg/day (inactive)
- TD50 (mouse, strain Charles River CD1, males, in drinking water, site: lung, lesion: one or several types, types not named, dosed 119 weeks, study length 119 weeks): 11.2 mg/kg/day (inactive)
- TD50 (rat, strain Fischer 344, females, by gavage, site: forestomach, lesion: squamous-cell papilloma, dosed 103 weeks, study length 104 weeks): 51.8 mg/kg/day
- TD50 (rat, strain Fischer 344, females, by gavage, site: liver, lesion: hepatocellular adenoma + hepatocellular carcinoma + neoplastic nodule, dosed 103 weeks, study length 104 weeks): 105 mg/kg/day
- TD50 (rat, strain Fischer 344, males, by gavage, site: adrenal medulla, lesion: pheochromocytoma benign, bilateral + pheochromocytoma, benign, dosed 103 weeks, study length 104 weeks): 1.56 mg/kg/day
- TD50 (rat, strain Fischer 344, males, by gavage, site: adrenal medulla, lesion: pheochromocytoma benign, bilateral + pheochromocytoma, complex + pheochromocytoma, malignant + pheochromocytoma malignant, bil, dosed 103 weeks, study length 104 weeks): 1.6 mg/kg/day
- TD50 (rat, strain Fischer 344, males, by gavage, site: any site (literature study), lesion: several types, types named in the paper, dosed 103 weeks, study length 104 weeks): 1.04 mg/kg/day
- TD50 (rat, strain Fischer 344, males, by gavage, site: forestomach, lesion: squamous-cell papilloma, dosed 103 weeks, study length 104 weeks): 3.12 mg/kg/day
- TD50 (rat, strain Fischer 344, males, by gavage, site: liver, lesion: hepatocellular adenoma + hepatocellular carcinoma + neoplastic nodule, dosed 103 weeks, study length 104 weeks): 10.3 mg/kg/day
- TD50 (rat, strain Fischer 344, males, by gavage, site: testis, lesion: interstitial-cell adenoma, bilateral + interstitial-cell adenoma, dosed 103 weeks, study length 104 weeks): 0.825 mg/kg/day
- TD50 (rat, strain Fischer 344, males, by gavage, site: thyroid gland, lesion: follicular-cell adenoma + follicular-cell carcinoma, dosed 103 weeks, study length 104 weeks): 5.25 mg/kg/day
- TD50 (rat, strain Fischer 344, males, by gavage, site: thyroid gland, lesion: follicular-cell adenoma, dosed 103 weeks, study length 104 weeks): 5.98 mg/kg/day
- TD50 (rat, strain Fischer 344, males, by gavage, site: thyroid gland, lesion: follicular-cell carcinoma, dosed 103 weeks, study length 104 weeks): 7.32 mg/kg/day

— PubChem BioAssay AID1745844 (Carcinogenic Potency Database (CPDB), 2022)
